Measurements published in article PMC10020809, “A Phase Ib/II Study of WNT974 + Encorafenib + Cetuximab in Patients With BRAF ^V600E-Mutant KRAS Wild-Type Metastatic Colorectal Cancer” (The Oncologist, 2023).
Marks after values point to notes of the source that are not given here. One block for each molecule: values may come before it.

Columns and labels:
[1] = Plasma pharmacokinetics, noncompartmental; assay type: in vivo, human; details: for t 1/2 / AUC(0-t) / AUC / Cmax / half-life: mean (SD); for AUC(0-t) / AUC / Cmax / half-life / Tmax: human, plasma, oral
Method: To assess plasma concentrations of WNT974, its active metabolite LHA333, and encorafenib, serial blood samples were collected on days 1 and 15 of cycle 1, and pre-dose blood samples were collected on days 2, 8, 16, and 22 of cycle 1, and on day 1 of cycles 2, 3, and 4. PK parameters were determined using noncompartmental methods. The PK analysis set included all patients with at least one available valid PK concentration measurement who received at least one dose of study drug.

[2] = system: patients with advanced solid tumors; parameters: method as in PMID 33941878; details: cited from earlier work
[3] = system: patients with BRAF V600E-mutant mCRC with RNF43 mutations or RSPO fusions; assay: Safety: adverse events (CTCAE v4.03), phase Ib; details: human, in vivo
Method: Patients who developed hypercalcemia (any grade) were treated with bisphosphonates per institutional standards.
The primary endpoints of the phase Ib study were the incidence of DLTs and exposure to WNT974 and encorafenib as measured by PK parameters. A DLT was defined as an AE or abnormal laboratory value assessed as unrelated to disease, disease progression, intercurrent illness, or concomitant medications that occurred within the first 28 days of treatment with WNT974 + encorafenib + cetuximab. The secondary endpoints for this study included the objective response rate (ORR; RECIST 1.1), disease control rate (DCR), and frequency and severity of AEs (Common Terminology Criteria for Adverse Events v4.03).
Tumor assessments were performed at baseline (screening) and every 6 weeks after starting study treatment until disease progression, initiation of subsequent antineoplastic therapy, or death, whichever occurred first. End-of-treatment tumor assessment was conducted within 14 days of receiving the last dose or treatment discontinuation. Safety was assessed throughout the study and included physical examinations, vital signs, weight, performance status evaluation, laboratory evaluations, dermatologic evaluations, ophthalmological examinations, bone loss assessments, cardiac assessments, and documentation of all non-serious and serious AEs (SAEs). […]

CRC preclinical models = system: CRC preclinical models; parameters: method as in PMID 31233627, PMID 28695896, PMID 23847203; details: in vitro and in vivo; cited from earlier work
[4] = system: patients with advanced solid tumors; HER2-negative breast cancer or pancreatic cancer; details: in vivo; cited from earlier work
[5] = 200 mg, All cohorts, encorafenib 200 mg once daily, day 15 of cycle 1, plasma
[6] = COMBO5, day 15 of cycle 1, plasma
[7] = COMBO7.5, day 15 of cycle 1, plasma
[8] = COMBO10, day 15 of cycle 1, plasma

t 1/2 ([1]; All cohorts, encorafenib 200 mg once daily, day 15 of cycle 1, plasma): 4.29 (2.42)^b h | T max ([1]; All cohorts, encorafenib 200 mg once daily, day 15 of cycle 1, plasma, median (range)): 1.95 (0.48-7.17) h | AUC(0-t) ([1]; 200 mg, All cohorts (N = 17), encorafenib 200 mg once daily, day 15 of cycle 1, plasma): 13700 ng·h/mL | AUC [1, 5]: 13800 ng·h/mL | Cmax [1, 5]: 2840 ng/mL | half-life [1, 5]: 4.3 h | Tmax ([1]; 200 mg, All cohorts, encorafenib 200 mg once daily, day 15 of cycle 1, plasma, median (range)): ~2 h
Molecule: COC(=O)N[C@@H](C)CNc1nccc(-c2cn(C(C)C)nc2-c2cc(Cl)cc(NS(C)(=O)=O)c2F)n1 [Encorafenib, encorafenib]
Mean AUC and maximum plasma drug concentration across treatment combinations ([1]; day 15 of cycle 1): generally comparable across all treatment combinations

Molecule: Cc1cc(-c2ncc(CC(=O)Nc3ccc(-c4cnccn4)cn3)cc2C)ccn1 [WNT974]
AE frequency: decreased appetite ([2]; across all doses): 45.7% | AE frequency: dysgeusia ([2]; across all doses): 50% | AE frequency: fatigue ([2]; across all doses): 31.9% | AE frequency: nausea ([2]; across all doses): 33.0% | AE frequency: vomiting ([2]; across all doses): 30.9% | Bone-related toxicities considered related to the study treatment [2]: 5 | Number of bone-related toxicities [2]: 7 | Patients who experienced bone-related toxicities [2]: 6 patients | t 1/2 [1, 6]: 4.74 (2.17) h | t 1/2 [1, 7]: 5.37 (0.697) h | Dose dependence of mean AUC ([1]; WNT974 5, 7.5, 10 mg, day 15 of cycle 1): increased in a dose-proportional manner | AUC(0-t) ([1]; COMBO5 (5 mg WNT974 once daily + encorafenib + cetuximab), day 15 of cycle 1, plasma): 220 ng·h/mL | AUC [1, 6]: 227 ng·h/mL | Cmax [1, 6]: 51 ng/mL | half-life [1, 6]: 4.7 h | Tmax ([1]; COMBO5, day 15 of cycle 1, plasma, median (range)): 1 h | AUC(0-t) ([1]; COMBO7.5 (7.5 mg WNT974 once daily + encorafenib + cetuximab), day 15 of cycle 1, plasma): 384 ng·h/mL | AUC [1, 7]: 384 ng·h/mL | Cmax [1, 7]: 93.4 ng/mL | half-life [1, 7]: 5.4 h | Tmax ([1]; COMBO7.5, day 15 of cycle 1, plasma, median (range)): 1.02 h | AUC(0-t) ([1]; COMBO10 (10 mg WNT974 once daily + encorafenib + cetuximab), day 15 of cycle 1, plasma): 460 ng·h/mL | AUC [1, 8]: 542 ng·h/mL | Cmax [1, 8]: 42.9 ng/mL | half-life [1, 8]: 11 h | Tmax ([1]; COMBO10, day 15 of cycle 1, plasma, median (range)): 4 h | Reported serious AEs of bone fracture [3]: 6 | Anti-tumor activity (CRC preclinical models): demonstrated anti-tumor activity

B1: vantictumab: an anti-Frizzled antibody, given with chemotherapy (antibody, chains of the INN, looked up, V domains shown)
VH: EVQLVESGGGLVQPGGSLRLSCAASGFTFSHYTLSWVRQAPGKGLEWVSVISGDGSYTYYADSVKGRFTISSDNSKNTLYLQMNSLRAEDTAVYYCARNFIKYVFANWGQGTLVTVSS
VL: DIELTQPPSVSVAPGQTARISCSGDNIGSFYVHWYQQKPGQAPVLVIYDKSNRPSGIPERFSGSNSGNTATLTISGTQAEDEADYYCQSYANTLSLVFGGGTKLTVL
Tolerability / bone safety in phase I trials [4]: closed early due to high rates of bone fracture
